From patent US20170050957A1, “4-AMINO-6-(HETEROCYCLIC)PICOLINATES AND 6-AMINO-2-(HETEROCYCLIC)PYRIMIDINE-4-CARBOXYLATES AND THEIR USE AS HERBICIDES” (Dow AgroSciences LLC, priority 2013, published 2017)
Like-named read-outs stand apart in the source and are kept apart here.

Columns and labels:
[1] = tested on: Key Grass and Sedge Weeds as well as Grass Crops; test: Post-emergent Test II herbicidal activity (Table 16); type: in vivo; conditions: post-emergence, 336 h, 14 days after application; for pest or weed control at 35 g/ha: 35 g ai/ha; for pest or weed control at 70 g/ha: 70 g ai/ha; for pest or weed control at 140 g/ha: 140 g ai/ha
Method in brief: (§1)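 Visual injury rating (0 = none, 100% = complete kill) made 14 d after treatment, relative to untreated plants. Compounds in an acetone/DMSO/aqueous crop-oil/surfactant spray, at top rate and serial 1/2×-1/16× rates, were applied at 187 L/ha overhead to first-second true leaf plants raised 7-21 d in greenhouse.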

[2] = tested on: Key Broadleaf Weed and Crop Species; test: Post-emergent Test II herbicidal activity (Table 15); type: in vivo; conditions: post-emergence, 336 h, 14 d; for pest or weed control at 35 g/ha: 35 g ai/ha; for pest or weed control at 70 g/ha: 70 g ai/ha; for pest or weed control at 140 g/ha: 140 g ai/ha
Method in brief: as §1

[3] = Cyperus esculentus, yellow nutsedge (Cyperus esculentus), read-out: Visual Growth Reduction (%) 14 Days After Application CYPES
[4] = Echinochloa crus-galli, barnyardgrass (Echinochloa crus-galli), read-out: Visual Growth Reduction (%) 14 Days After Application ECHCG
[5] = Oryza sativa, rice (Oryza sativa), read-out: Visual Growth Reduction (%) 14 Days After Application ORYSA
[6] = Setaria faberi, giant foxtail (Setaria faberi), read-out: Visual Growth Reduction (%) 14 Days After Application SETFA
[7] = Triticum aestivum, wheat, spring (Triticum aestivum), read-out: Visual Growth Reduction (%) 14 Days After Application TRZAS
[8] = Zea mays, maize, corn (Zea mays), read-out: Visual Growth Reduction (%) 14 Days After Application ZEAMX
[9] = Abutilon theophrasti, velvetleaf (Abutilon theophrasti), read-out: Visual Growth Reduction (%) 14 Days After Application, ABUTH
[10] = Amaranthus retroflexus, redroot pigweed (Amaranthus retroflexus), read-out: Visual Growth Reduction (%) 14 Days After Application, AMARE
[11] = Brassica napus, oilseed rape, canola (Brassica napus), read-out: Visual Growth Reduction (%) 14 Days After Application, BRSNN
[12] = Chenopodium album, lambsquarters (Chenopodium album), read-out: Visual Growth Reduction (%) 14 Days After Application, CHEAL
[13] = Euphorbia heterophylla, wild poinsettia (Euphorbia heterophylla), read-out: Visual Growth Reduction (%) 14 Days After Application, EPHHL
[14] = Helianthus annuus, sunflower (Helianthus annuus), read-out: Visual Growth Reduction (%) 14 Days After Application, HELAN

COC(=O)c1nc(-c2cccc3sccc23)c(F)c(N)c1Cl [Compound 3.23]
85 to 94%: pest or weed control at 140 g/ha [2, 12]
45 to 59%: pest or weed control at 70 g/ha [2, 12]
0 to 29%: pest or weed control at 35 g/ha [1, 3] | pest or weed control at 70 g/ha [1, 3] | pest or weed control at 140 g/ha [1, 3] | pest or weed control at 35 g/ha [1, 4] | pest or weed control at 70 g/ha [1, 4] | pest or weed control at 140 g/ha [1, 4] | pest or weed control at 35 g/ha [1, 5] | pest or weed control at 70 g/ha [1, 5] | pest or weed control at 140 g/ha [1, 5] | pest or weed control at 35 g/ha [1, 6] | pest or weed control at 70 g/ha [1, 6] | pest or weed control at 140 g/ha [1, 6] | pest or weed control at 35 g/ha [1, 7] | pest or weed control at 70 g/ha [1, 7] | pest or weed control at 140 g/ha [1, 7] | pest or weed control at 35 g/ha [1, 8] | pest or weed control at 70 g/ha [1, 8] | pest or weed control at 140 g/ha [1, 8] | pest or weed control at 35 g/ha [2, 9] | pest or weed control at 70 g/ha [2, 9] | pest or weed control at 140 g/ha [2, 9] | pest or weed control at 35 g/ha [2, 10] | pest or weed control at 70 g/ha [2, 10] | pest or weed control at 140 g/ha [2, 10] | pest or weed control at 35 g/ha [2, 11] | pest or weed control at 70 g/ha [2, 11] | pest or weed control at 140 g/ha [2, 11] | pest or weed control at 35 g/ha [2, 12] | pest or weed control at 35 g/ha [2, 13] | pest or weed control at 70 g/ha [2, 13] | pest or weed control at 140 g/ha [2, 13] | pest or weed control at 35 g/ha [2, 14] | pest or weed control at 70 g/ha [2, 14] | pest or weed control at 140 g/ha [2, 14]
219 to 221 °C: melting point

COC(=O)c1nc(-c2ccc3ccsc3c2)nc(N)c1OC [Compound 3.20]
95 to 100%: pest or weed control at 70 g/ha [2, 12] | pest or weed control at 140 g/ha [2, 12] | pest or weed control at 70 g/ha [2, 13] | pest or weed control at 140 g/ha [2, 13]
60 to 74%: pest or weed control at 140 g/ha [1, 4] | pest or weed control at 140 g/ha [1, 6] | pest or weed control at 70 g/ha [2, 10] | pest or weed control at 140 g/ha [2, 10] | pest or weed control at 70 g/ha [2, 11] | pest or weed control at 140 g/ha [2, 11]
0 to 29%: pest or weed control at 35 g/ha [1, 4] | pest or weed control at 35 g/ha [1, 5] | pest or weed control at 70 g/ha [1, 5] | pest or weed control at 140 g/ha [1, 5] | pest or weed control at 35 g/ha [1, 6] | pest or weed control at 70 g/ha [1, 6] | pest or weed control at 35 g/ha [1, 7] | pest or weed control at 70 g/ha [1, 7] | pest or weed control at 35 g/ha [1, 8] | pest or weed control at 35 g/ha [2, 9] | pest or weed control at 70 g/ha [2, 9] | pest or weed control at 140 g/ha [2, 9] | pest or weed control at 35 g/ha [2, 10]
45 to 59%: pest or weed control at 70 g/ha [1, 4]
30 to 44%: pest or weed control at 35 g/ha [1, 3] | pest or weed control at 70 g/ha [1, 3] | pest or weed control at 140 g/ha [1, 7] | pest or weed control at 35 g/ha [2, 11]
143 to 145 °C: melting point
85 to 94%: pest or weed control at 140 g/ha [1, 3] | pest or weed control at 140 g/ha [1, 8] | pest or weed control at 35 g/ha [2, 12] | pest or weed control at 70 g/ha [2, 14] | pest or weed control at 140 g/ha [2, 14]
75 to 84%: pest or weed control at 70 g/ha [1, 8] | pest or weed control at 35 g/ha [2, 13] | pest or weed control at 35 g/ha [2, 14]
